For experiment [1], the target named is T1, ShhN-EGFP (Homo sapiens, UniProt Q15465).
T1 construct: PET-28(a)-human ShhN (Shh 24-197) plasmid; His (N); made in house; host or cells: Escherichia coli Rosetta (DE3)
As to the kind of experiment: Microscale thermophoresis (MST) binding. How it is done:
Chuanmao Zhang. EGFP gene was subcloned into pET-28(a)-human ShhN vector to build ShhN-EGFP plasmids. All mutations were introduced by PCR and confirmed by sequencing with GENEWIZ (China).
Measurements were performed using a Monolith NT. […] MST-optimized buffer (50 mM Tris·HCl, pH 7.4, 150 mM NaCl, 10 mM MgCl2, 0.1% Tween-20, 0.1% Pluronic-F127, 5% DMSO) was applied. Measurements were carried out using blue LED color with 20% LED power and 40% MST power. The concentration of ShhN-EGFP was adjusted according to the fluorescence. Mean values and standard deviations were calculated from experiments performed at least in triplicate. Nanotemper analysis software V1.5.41 was applied to analyze data.
We used microscale thermophoresis (MST) to quantitatively measure binding constants between the compounds and ShhN (Table S5 and Figure S1). A ShhN-EGFP fusion protein was constructed, expressed, and purified from bacterial cells. In MST binding assays, ShhN-EGFP was kept at a constant concentration according to the fluorescence signal. Different concentrations of the molecules were tested and dissociation constants (Kd) were derived.

The subject of experiment [2] is Hh signaling pathway (8 × Gli-binding site luciferase reporter, Shh-LIGHT2 cells). Briefly: Dual-luciferase reporter assay in Shh-LIGHT2 cells. It is filed as cell-based. The following applies: for IC50: Shh Light2, 36 h, ShhN-conditioned medium, 36 h, mean ± SD for three independent experiments; for inhibition at 5 µM: read-out: Inhibition rate for cell assay at 5 μM. How it is done: A dual-luciferase reporter assay was performed as previously described (Zhan et al., [2014]; Kong et al., [2015]). Shh-LIGHT2 cells, an Hh activity reporter cell line derived from NIH-3T3 cells by stably expressing 8 × Gli-binding site luciferase reporter (8 × GBS-luciferase) plasmid provided by Sasaki et al. ([1999]) and pRL-Renilla luciferase plasmid, were seeded into 96-well plates. After 24 h, ShhN-conditioned medium (ShhN CM) was added, and cells were exposed to molecules. The luciferase activities of cells were measured 36 h later with a Dual-Luciferase Reporter Assay System (E1960, Promega), according to the manufacturer's instructions, in a luminometer (Molecular Devices, Sunnyvale, CA). The firefly luciferase values were normalized to the Renilla luciferase activities, and IC50 values were fitted with the Hill equation with OriginPro 9.
We further tested the 45 Shh-binding compounds to assess their effects on the Hh signaling pathway. […] Compounds with similar framework were merged, resulting in seven hits.
All 22 derivatives of 7 were tested at 5 μM with the dual-luciferase reporter cell assay (Table S6).

In experiment [3] the target is T2, ShhN (Homo sapiens, UniProt Q15465).
T2 construct: PET-28(a)-human ShhN (Shh 24-197) plasmid; His (N); made in house; host or cells: Escherichia coli Rosetta (DE3)
As to the kind of experiment: NanoDSF thermal stability. It is filed as binding. The following applies: ShhN 0.2 mg/mL. How it is done: Measurements were performed using a Prometheus NT.48 instrument (NanoTemper Inc., Germany). ShhN was diluted to 0.2 mg/mL in buffer contained 10 mM HEPES, pH 7.4, 150 mM NaCl, and 5% DMSO. Measurements were carried out using 70% power with standard Prometheus NT.48 capillaries. The heating was 1.0°C/min from 20 to 95°C.
To gain further insight into the effects of inhibitors against ShhN, a NanoDSF experiment was conducted.

Experiment [4] deals with Gli1 mRNA expression in Ptch+/−p53−/− medulloblastoma cells. Briefly: Real-time PCR of Gli1 mRNA in Ptch+/-p53-/- medulloblastoma cells. It counts as cell-based, mice. The following applies: RT-qPCR, 36 h exposure, normalized to GUSB. How it is done:
Ptch^+/−p53^−/− medulloblastoma cells were cultivated from spontaneous medulloblastoma developed by ptch^+/−; p53^−/− mice. All procedures were preapproved by the Animal Care and Use Committee of Fudan University and performed according to institutional policies. Briefly, medulloblastoma tissues were mechanically minced and digested by collagenase. The cells were routinely cultured using Neurobasal A medium (Invitrogen) plus B-27 supplement (Invitrogen), EGF 20 ng/mL (Invitrogen), bFGF 20 ng/mL (Invitrogen), non-essential amino acids, N-acetylcysteine 60 μg/mL. GDC-0449 was purchased from Biovision (Milpitas, CA). […]
Total RNA was extracted from cells using an RNAiso Plus Kit (TaKaRa, Dalian, China) according to the manufacturer's instructions and processed directly to cDNA by reverse transcription with a SuperScript III Kit (TaKaRa, Dalian, China). Semi-quantitative PCR amplification was conducted using Stratagene mx3005p (Agilent). All quantitative PCR amplifications were performed in triplicate with a SYBR Green Kit (TaKaRa, Dalian, China) in an iCycleriQ system (Bio-Rad, Hercules, CA). […]
Levels of the Shh-induced transcription factor Gli1 are higher in Ptch^+/−p53^−/− medulloblastoma from mice than in control tissues as a result of increased Hh signaling activity (Wetmore et al., [2001]). […] We measured the expression of Gli1 mRNA using RT-qPCR (Figure 2). […]

The subject of experiment [5] is Shh. The following applies: Shh inhibitory activity in cellular assays, ref Stanton et al., 2009 (Table 1 prints ref. 14), cited from earlier work.
Setting [6] is: MST, ShhN-EGFP, mean±SD for three independent experiments, read-out: Kd.

Where two headings read alike, the source gives them in different places.

T1 sequence (Q15465 24-197): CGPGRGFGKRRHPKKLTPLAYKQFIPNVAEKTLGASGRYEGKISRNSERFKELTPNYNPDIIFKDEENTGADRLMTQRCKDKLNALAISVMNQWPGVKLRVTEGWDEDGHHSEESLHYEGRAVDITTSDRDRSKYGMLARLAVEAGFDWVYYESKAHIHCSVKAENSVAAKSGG
T2 sequence (Q15465 24-197): as above

`Cc1cc(C)c(CSC2=NCCN2)c(C)c1CSC1=NCCN1` [Compound 1]: the Kd in experiment [1] (setting [6]) was found to be 7000 ± 800 nM. The compound also displayed an IC50 in experiment [2] of 2300 ± 200 nM.
`OC(CNCc1ccc2c(c1)OCO2)COc1ccc(-c2csnn2)cc1` (stereo not drawn) [Compound 2]: the Kd in experiment [1] worked out at 8400 ± 900 nM. In experiment [2], this compound gave an IC50 of 1700 ± 100 nM.
With `c1ccc(COC(CNC2CCCCC2)CNC2CCCCC2)cc1` [Compound 3], in experiment [1] (setting [6]), the Kd was found to be 3100 ± 300 nM. The compound further returned an IC50 in experiment [2] of 2200 ± 200 nM.
Consider `CCN(CC)S(=O)(=O)c1ccc(C(=O)Nc2sc3c(c2C(N)=O)CCN(C)C3)cc1` [Compound 4], for which, in experiment [1] (ShhN-EGFP), the “MST binding signal / dose-response (in words)” value was “did not reach saturation”. The same compound displayed an IC50 in experiment [2] of 2700 ± 200 nM.
In experiment [1], `OCCCNCC(O)Cn1c2ccc(Br)cc2c2cc(Br)ccc21` (stereo not drawn) [Compound 5] came in with a Kd of 4500 ± 600 nM. Further, the IC50 in experiment [2] worked out at 2000 ± 300 nM.
For `CCOC(=O)c1c(C)n(-c2ccc(C)cc2)c2ccc(OCC(O)CNCCCO)cc12` (stereo not drawn) [Compound 6], the Kd in experiment [1] (setting [6]) is 5800 ± 500 nM. The IC50 in experiment [2] is 1400 ± 400 nM.
For `Nc1nc(NCCCN2CCOCC2)nc(NCc2ccco2)c1[N+](=O)[O-]` [Compound 7], in experiment [1] (setting [6]), the Kd amounted to 6200 ± 600 nM. The IC50 in experiment [2] is 2200 ± 300 nM.
Consider `Nc1nc(NCC2CCCO2)nc(NCc2ccco2)c1[N+](=O)[O-]` (stereo not drawn) [Compound 7_2d2], for which, in experiment [2], the inhibition at 5 µM turned out to be 94 ± 4% and the IC50 was 3200 ± 700 nM.
In the same order, the values of `Nc1nc(NCCN2CCOCC2)nc(NCc2ccco2)c1[N+](=O)[O-]` [Compound 7_2d3] are 68 ± 12% and 2600 ± 300 nM.
In the same order, the values of `CCOc1ccc(Nc2nc(N)c([N+](=O)[O-])c(NCc3ccco3)n2)cc1` [Compound 7_2d6] are 97 ± 7% and 2000 ± 800 nM.
On the same counts, the results for `Nc1nc(Nc2ccc(Cl)cc2)nc(NCc2ccco2)c1[N+](=O)[O-]` [Compound 7_2d7] are 102 ± 3% and 2100 ± 200 nM.
Regarding `Nc1nc(Nc2cccc(F)c2)nc(NCc2ccco2)c1[N+](=O)[O-]` [Compound 7_2d8], in experiment [2], the inhibition at 5 µM came out at 101 ± 8% and the IC50 came out at 2400 ± 400 nM.
For `Nc1nc(Nc2ccccc2F)nc(NCc2ccco2)c1[N+](=O)[O-]` [Compound 7_2d9], in experiment [2], the inhibition at 5 µM is 94 ± 3% and the IC50 is 5900 ± 1700 nM.
Turning to `c1ccc(Nc2nc(NC3CCCCCC3)nc3c2cnn3-c2ccccc2)cc1` [Compound 7_3d2], in experiment [2], the inhibition at 5 µM was determined as 93 ± 1% and the IC50 was 1600 ± 600 nM.
`CCN(CC)CCNc1nc(Nc2cccc(Cl)c2)c2cnn(-c3ccccc3)c2n1` [Compound 7_3d3]: in experiment [2], the inhibition at 5 µM came to 107 ± 1% and the IC50 was approximately 400 nM. Further, the “Thermal stability of ShhN (in words)” value in experiment [3] is “improved the thermal stability of ShhN better than 7”.
For the compound `CCN1CCN(c2nc(Nc3cccc(Cl)c3)c3cnn(-c4ccccc4)c3n2)CC1` [Compound 7_3d4], in experiment [2], the inhibition at 5 µM is 105 ± 5% and the IC50 turned out to be 600 ± 100 nM.
Take `N#Cc1c(N)nc(NCCCN2CCOCC2)nc1-c1ccc(Cl)cc1` [Compound 7_3d11]: the IC50 in experiment [2] is 1200 ± 200 nM.
For the compound `CS(=O)(=O)c1ccc(C(=O)Nc2ccc(Cl)c(-c3ccccn3)c2)c(Cl)c1` [GDC-0449], the “Relative mRNA expression of Gli1 (effect in words)” value in experiment [4] is recorded as “positive control for inhibition of the expression of Gli1 mRNA”.
In the case of `O=C(C[C@@H]1C/C=C/CCC(=O)O[C@H](c2ccccc2)CNC1=O)NCc1ccc(Cl)cc1` [Robotnikinin], the IC50 in experiment [5] is 15000 nM; in experiment [5] (listed as robotnikinin), approximately 15000 nM; in experiment [2] it was 4400 ± 900 nM. The “Relative mRNA expression of Gli1 (effect in words)” value in experiment [4] is on record as “did not inhibit Gli1 mRNA expression”.
